From patent US20240327417A1, “HETEROCYCLIC COMPOUNDS” (BeiGene Switzerland GmbH, priority 2021, published 2024)

Assays:
[1] = molecular target: T1, Full length DGKζ (in-house protein M1-V929) (Homo sapiens, UniProt Q13574); assay: Biochemical DGK IC50 assay (ADP-Glo, lipid micelle substrate), DGKζ; details: 0.5 nM enzyme, 140 μM ATP, 80 μM DAG, 1 hour preincubation, 1 hour reaction, room temperature, read-out: IC50s for DGKζ
T1 construct: His (N); TEV cleavage site (N); made in house; host or cells: Sf9 insect cells (baculovirus, Bac-to-Bac)
T1 sequence (Q13574 1-929 isoform Q13574-4): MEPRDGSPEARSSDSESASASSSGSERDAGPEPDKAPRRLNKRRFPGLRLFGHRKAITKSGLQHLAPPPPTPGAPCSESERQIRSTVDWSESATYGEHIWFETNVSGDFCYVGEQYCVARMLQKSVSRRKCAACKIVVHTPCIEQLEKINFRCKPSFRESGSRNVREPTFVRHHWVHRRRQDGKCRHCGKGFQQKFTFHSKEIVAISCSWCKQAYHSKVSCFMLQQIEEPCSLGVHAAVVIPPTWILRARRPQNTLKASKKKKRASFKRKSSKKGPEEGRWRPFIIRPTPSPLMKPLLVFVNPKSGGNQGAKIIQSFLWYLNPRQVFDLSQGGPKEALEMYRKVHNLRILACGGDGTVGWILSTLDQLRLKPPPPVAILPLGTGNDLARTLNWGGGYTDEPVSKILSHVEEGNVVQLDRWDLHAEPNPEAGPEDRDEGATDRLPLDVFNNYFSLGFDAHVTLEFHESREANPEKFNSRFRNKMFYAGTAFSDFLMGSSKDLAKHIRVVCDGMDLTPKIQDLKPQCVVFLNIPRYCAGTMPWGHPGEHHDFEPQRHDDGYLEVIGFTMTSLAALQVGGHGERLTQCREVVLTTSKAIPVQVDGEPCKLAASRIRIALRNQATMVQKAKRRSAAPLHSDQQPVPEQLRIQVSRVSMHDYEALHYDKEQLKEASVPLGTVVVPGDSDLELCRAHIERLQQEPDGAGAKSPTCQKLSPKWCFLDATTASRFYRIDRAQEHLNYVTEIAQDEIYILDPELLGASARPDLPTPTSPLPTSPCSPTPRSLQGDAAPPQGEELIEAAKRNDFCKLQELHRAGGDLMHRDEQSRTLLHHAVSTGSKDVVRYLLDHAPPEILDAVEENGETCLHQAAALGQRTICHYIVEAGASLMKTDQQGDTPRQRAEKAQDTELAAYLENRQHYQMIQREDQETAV
Method in brief: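 In-house full-length human DGKζ, baculovirus-expressed in Sf9 cells, was assayed with a DAG/PS lipid micelle substrate at room temperature. Buffer was 50 mM HEPES, 10 mM MgCl2, 0.01% BSA, 0.1 mM Na3VO4, 0.005% Tween-20, 0.01 mM CaCl2, with final compound 1.55˜10000 nM or 23.3˜150000 nM.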

[2] = molecular target: T2, Full length DGKα (D21-10BG, SignalChem) (Homo sapiens, UniProt P23743); assay: Biochemical DGK IC50 assay (ADP-Glo, lipid micelle substrate), DGKα; details: 7.5 nM enzyme, 140 μM ATP, 80 μM DAG, 1 hour preincubation, 1 hour reaction, room temperature, read-out: IC50s for DGKα
T2 construct: Full length DGKα (D21-10BG, SignalChem); purchased SignalChem D21-10BG
T2 sequence (P23743 whole entry): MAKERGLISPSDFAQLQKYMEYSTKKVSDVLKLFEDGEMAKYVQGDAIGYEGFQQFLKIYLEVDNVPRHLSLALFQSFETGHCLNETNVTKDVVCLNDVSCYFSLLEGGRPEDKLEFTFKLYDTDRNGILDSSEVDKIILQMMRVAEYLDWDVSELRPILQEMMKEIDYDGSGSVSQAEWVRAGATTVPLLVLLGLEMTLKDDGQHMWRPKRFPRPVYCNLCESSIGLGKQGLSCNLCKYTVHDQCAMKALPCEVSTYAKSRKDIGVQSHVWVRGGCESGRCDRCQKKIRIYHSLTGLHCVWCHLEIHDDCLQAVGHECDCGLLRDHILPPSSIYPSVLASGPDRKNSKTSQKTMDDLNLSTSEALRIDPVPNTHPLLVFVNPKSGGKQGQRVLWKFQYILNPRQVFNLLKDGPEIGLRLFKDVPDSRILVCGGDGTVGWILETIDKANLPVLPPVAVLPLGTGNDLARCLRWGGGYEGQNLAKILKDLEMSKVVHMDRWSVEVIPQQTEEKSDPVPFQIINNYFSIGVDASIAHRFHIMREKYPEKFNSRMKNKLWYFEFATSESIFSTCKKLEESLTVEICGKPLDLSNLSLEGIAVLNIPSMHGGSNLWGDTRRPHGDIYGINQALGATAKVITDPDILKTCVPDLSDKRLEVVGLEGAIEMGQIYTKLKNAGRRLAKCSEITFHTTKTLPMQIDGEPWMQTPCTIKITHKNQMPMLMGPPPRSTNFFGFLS
Method in brief: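 Full-length enzyme was assayed by ADP-Glo on DAG/PS lipid micelles at room temperature in HEPES/MgCl2/CaCl2 buffer with BSA, Na3VO4 and Tween-20, using a 1 h reaction and luminescence read-out.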

## CC[C@H]1CN(C(C)c2ccc(OC(C)C)cc2)[C@H](CC)CN1c1cc(=O)n(C)n2cc(CC#N)nc12 (stereo partly drawn) [Compound A51, 2-(8-((2S,5R)-2,5-diethyl-4-(1-(4-isopropoxyphenyl)ethyl)piperazin-1-yl)-5-methyl-6-oxo-5,6-dihydroimidazo[1,2-b]pyridazin-2-yl)acetonitrile]
[1]
  IC50: 284 nM
[2]
  IC50: 90 nM

## CC[C@H]1CN(C(C)c2ccc3scnc3c2F)[C@H](CC)CN1c1cc(=O)n(C)n2cc(CC#N)nc12 (single isomer, unassigned) [Compound A66a]
[1]
  IC50: 22 nM
[2]
  IC50: 105 nM

## CC[C@H]1CN(C(C)c2ccc3nc(C)sc3n2)[C@H](CC)CN1c1c(F)c(=O)n(C)n2cc(CC#N)nc12 (single isomer, unassigned) [Compound A82a]
[1]
  IC50: 15 nM
[2]
  IC50: 26 nM

## CC[C@H]1CN(C(C)c2ccc3ncsc3c2)[C@H](CC)CN1c1cc(=O)n(C)n2cc(CC#N)nc12 (single isomer, unassigned) [Compound A53a]
[1]
  IC50: 4 nM
[2]
  IC50: 11 nM

## CC[C@H]1CN(C(C)c2ccc(C(F)(F)F)cc2F)[C@H](CC)CN1c1cc(=O)n(C)n2cc(CC#N)nc12 (single isomer, unassigned) [Compound A92b]
[1]
  IC50: 1610 nM
[2]
  IC50: 803 nM

## CC#CCc1cn2c(n1)c(N1C[C@@H](CC)N(C(C)c3ccc4nc(C)sc4c3)C[C@@H]1CC)cc(=O)n2C (single isomer, unassigned) [Compound A68a]
[1]
  IC50: 104 nM
[2]
  IC50: 26 nM

## [2H]C([2H])([2H])c1nc2ccc(C(C)N3C[C@H](CC)N(c4cc(=O)n(C([2H])([2H])[2H])n5cc(CC#N)nc45)C[C@H]3CC)cc2s1 (single isomer, unassigned) [Compound A97a]
[1]
  IC50: 24 nM
[2]
  IC50: 79 nM

## CC[C@H]1CN(C(C)c2ccc(C3CC3)nc2)[C@H](CC)CN1c1c(C#N)c(=O)n(C)n2cc(CC#N)nc12 (single isomer, unassigned) [Compound A75a]
[1]
  IC50: 276 nM
[2]
  IC50: 420 nM

## COCc1cn2c(n1)c(N1C[C@@H](C)N(C(C)c3ccc4nccnc4c3)C[C@@H]1C)cc(=O)n2C (stereo partly drawn) [Compound A4, 8-((2S,5R)-2,5-dimethyl-4-(1-(quinoxalin-6-yl)ethyl)piperazin-1-yl)-2-(methoxymethyl)-5-methylimidazo[1,2-b]pyridazin-6(5H)-one]
[1]
  IC50: 480 nM
[2]
  IC50: 4000 nM

## CC[C@H]1CN(C(C)c2ccc(OC)cc2)[C@H](CC)CN1c1cc(=O)n(C)n2cc(CC#N)nc12 (stereo partly drawn) [Compound A72, 2-(8-((2S,5R)-2,5-diethyl-4-(1-(4-methoxyphenyl)ethyl)piperazin-1-yl)-5-methyl-6-oxo-5,6-dihydroimidazo[1,2-b]pyridazin-2-yl)acetonitrile]
[1]
  IC50: 76 nM
[2]
  IC50: 23 nM

## CCC(c1ccc2nc(C)sc2n1)N1C[C@H](CC)N(c2cc(=O)n(C)n3cc(CC#N)nc23)C[C@H]1C (single isomer, unassigned) [Compound A98a]
[1]
  IC50: 2940 nM
[2]
  IC50: 712 nM

## CC[C@@H]1CN(c2cc(=O)n(C)n3cc(COC)nc23)[C@@H](C)CN1C(C)c1ccc(C(F)(F)F)cc1F (single isomer, unassigned) [Compound A16a]
[1]
  IC50: 1230 nM
[2]
  IC50: 4650 nM

## CC[C@@H]1CN(c2cc(=O)n(C)n3cc(CC#N)nc23)[C@@H](C)CN1C(C)c1cc2sc(C)nc2cc1F (single isomer, unassigned) [Compound A60b]
[1]
  IC50: 2930 nM
[2]
  IC50: 4410 nM

## [2H]C([2H])([2H])c1nc2ccc(C(C)N3C[C@H](CC)N(c4cc(=O)n(C)n5cc(CC#N)nc45)C[C@H]3CC)cc2s1 (single isomer, unassigned) [Compound A96b]
[1]
  IC50: 861 nM
[2]
  IC50: 2080 nM

## CC[C@H]1CN(C(C)c2ccc(F)cc2C(F)F)[C@H](CC)CN1c1cc(=O)n(C)n2cc(CC#N)nc12 (stereo partly drawn) [Compound A34, 2-(8-((2S,5R)-4-(1-(2-(difluoromethyl)-4-fluorophenyl)ethyl)-2,5-diethylpiperazin-1-yl)-5-methyl-6-oxo-5,6-dihydroimidazo[1,2-b]pyridazin-2-yl)acetonitrile]
[1]
  IC50: 14 nM
[2]
  IC50: 3510 nM

## CC#CCc1cn2c(n1)c(N1C[C@@H](CC)N(C(C)c3ccc4nc(C)sc4n3)C[C@@H]1CC)cc(=O)n2C (single isomer, unassigned) [Compound A115a]
[1]
  IC50: > 10000 nM
[2]
  IC50: 288 nM

## CC[C@H]1CN(C(C)c2ccc3ncsc3n2)[C@H](CC)CN1c1cc(=O)n(C)n2cc(CC#N)nc12 (single isomer, unassigned) [Compound A57a]
[1]
  IC50: 6.8 nM
[2]
  IC50: 7.9 nM

## CC[C@H]1CN(C(C)c2ccc3nc(C)sc3c2F)[C@H](C)CN1c1cc(=O)n(C)n2cc(CC#N)nc12 (single isomer, unassigned) [Compound A119b]
[1]
  IC50: 51 nM
[2]
  IC50: 340 nM

## CC[C@H]1CN(C(C)c2ccc3ncsc3c2F)[C@H](CC)CN1c1cc(=O)n(C)n2cc(CC#N)nc12 (single isomer, unassigned) [Compound A62b]
[1]
  IC50: 1210 nM
[2]
  IC50: 2390 nM

## CC[C@H]1CN(C(C)c2ccc(C3CC3)nc2)[C@H](CC)CN1c1c(C#N)c(=O)n(C)n2cc(CC#N)nc12 (single isomer, unassigned) [Compound A75b]
[1]
  IC50: 1050 nM
[2]
  IC50: 1300 nM

## CC(c1ccc2nccnc2c1)N1C[C@H](C)N(c2cc(=O)n(C)n3cc(C[S+](C)[O-])nc23)C[C@H]1C (stereo partly drawn) [Compound A10, 8-((2S,5R)-2,5-dimethyl-4-(1-(quinoxalin-6-yl)ethyl)piperazin-1-yl)-5-methyl-2-((methylsulfinyl)methyl)imidazo[1,2-b]pyridazin-6(5H)-one]
[1]
  IC50: > 10000 nM
[2]
  IC50: > 10000 nM

## CC[C@@H]1CN(c2c(C#N)c(=O)n(C)n3cc(CC#N)nc23)[C@@H](C)CN1C(C)c1ccc(C2CC2)nc1 (single isomer, unassigned) [Compound A74a]
[1]
  IC50: 166 nM
[2]
  IC50: 682 nM

## CC[C@@H]1CN(c2cc(=O)n(C)n3cc(CC#N)nc23)[C@@H](C)CN1C(C)c1ccc(C(F)(F)F)cc1F (single isomer, unassigned) [Compound A17a]
[1]
  IC50: 108 nM
[2]
  IC50: 171 nM

## CC[C@H]1CN(C(C)c2ccc3nc(C)sc3c2)[C@H](CC)CN1c1cc(=O)n(C)n2cc(CC#N)nc12 (single isomer, unassigned) [Compound A56b]
[1]
  IC50: 638 nM
[2]
  IC50: 659 nM

## CCc1nc2ccc(C(C)N3C[C@H](CC)N(c4cc(=O)n(C)n5cc(CC#N)nc45)C[C@H]3CC)cc2s1 (single isomer, unassigned) [Compound A100a]
[1]
  IC50: 19 nM
[2]
  IC50: 297 nM

## CC[C@H]1CN(C(CCOC)c2ccc3nc(C)sc3c2)[C@H](C)CN1c1cc(=O)n(C)n2cc(CC#N)nc12 (stereo partly drawn) [Compound A103, 2-(8-((2S,5R)-2-ethyl-4-(3-methoxy-1-(2-methylbenzo[d]thiazol-6-yl)propyl)-5-methylpiperazin-1-yl)-5-methyl-6-oxo-5,6-dihydroimidazo[1,2-b]pyridazin-2-yl)acetonitrile]
[1]
  IC50: 138 nM
[2]
  IC50: 701 nM

## CC[C@H]1CN(C(C)c2ccc(C3CC3)nc2)[C@H](CC)CN1c1c(F)c(=O)n(C)n2cc(CC#N)nc12 (single isomer, unassigned) [Compound A73a]
[1]
  IC50: 77 nM
[2]
  IC50: 177 nM

## Cc1cnc2ccc(C(C)N3C[C@H](C)N(c4c(F)c(=O)n(C)n5cc(CC#N)nc45)C[C@H]3C)cc2n1 (stereo partly drawn) [Compound A22, 2-(8-((2S,5R)-2,5-dimethyl-4-(1-(3-methylquinoxalin-6-yl)ethyl)piperazin-1-yl)-7-fluoro-5-methyl-6-oxo-5,6-dihydroimidazo[1,2-b]pyridazin-2-yl)acetonitrile]
[1]
  IC50: 95 nM
[2]
  IC50: 10800 nM

## CC[C@H]1CN(C(C)c2ccc3nc(C)sc3c2)[C@H](CC)CN1c1c(C#N)c(=O)n(C)n2cc(CC#N)nc12 (stereo partly drawn) [Compound A111, 2-(cyanomethyl)-8-((2S,5R)-2,5-diethyl-4-(1-(2-methylbenzo[d]thiazol-6-yl)ethyl)piperazin-1-yl)-5-methyl-6-oxo-5,6-dihydroimidazo[1,2-b]pyridazine-7-carbonitrile]
[1]
  IC50: 132 nM
[2]
  IC50: 575 nM

## CC[C@H]1CN(C(C)c2ccc(C3CC3)nc2)[C@H](CC)CN1c1cc(=O)n(C)n2cc(CC#N)nc12 (single isomer, unassigned) [Compound A37b]
[1]
  IC50: 538 nM
[2]
  IC50: 260 nM

## CC[C@H]1CN(C(C)c2ccc3nccnc3c2)[C@H](CC)CN1c1cc(=O)n(C)n2cc(COC)nc12 (single isomer, unassigned) [Compound A8b]
[1]
  IC50: 1330 nM
[2]
  IC50: 5080 nM

## CC[C@H]1CN(C(C)c2ccc3nc(C)sc3c2)[C@H](CC)CN1c1cc(=O)n(C)n2cc(C=NOC)nc12 (single isomer, unassigned) [Compound A123bc]
[1]
  IC50: 2390 nM
[2]
  IC50: 131 nM

## CC[C@H]1CN(C(C)c2ccc3nccnc3c2)[C@H](CC)CN1c1cc(=O)n(C)n2cc(CC#N)nc12 (single isomer, unassigned) [Compound A14b]
[1]
  IC50: 358 nM
[2]
  IC50: 1420 nM

## CC[C@H]1CN(C(C)c2ccc(F)cc2OC)[C@H](CC)CN1c1cc(=O)n(C)n2cc(CC#N)nc12 (stereo partly drawn) [Compound A32, 2-(8-((2S,5R)-2,5-diethyl-4-(1-(4-fluoro-2-methoxyphenyl)ethyl)piperazin-1-yl)-5-methyl-6-oxo-5,6-dihydroimidazo[1,2-b]pyridazin-2-yl)acetonitrile]
[1]
  IC50: 110 nM
[2]
  IC50: 6420 nM
